Results from patent US4962224A, “N-naphthoylglycines as aldose reductase inhibitors” (American Home Products Corporation, priority 1989, dated 1990).
“And” between values parts separate entries of the source, which are not always exact repeats. Equal entries are not always repeated.

Tests used:
aldose reductase = biological target: T1, aldose reductase (Bos taurus, UniProt P16116); assay: aldose reductase inhibiting effects in vitro (Table I, IN VITRO); assay type: biochemical, bovine (lens); conditions: read-out: % Inhibition IN VITRO
T1 construct: preparation of the enzyme from bovine lens; from tissue; host or cells: bovine lens
From the text: In the present case the procedure of Hayman and Kinoshita was modified in that the final chromatography step was omitted in the preparation of the enzyme from bovine lens. The results are tabulated in Table I under the heading IN VITRO.

[1] = tested on: Sciatic Nerve Polyol Accumulation; assay: Two-Week Streptozocin - Diabetic Rat Model, lowering of sciatic nerve polyol accumulation; assay type: in vivo, rat (Sprague-Dawley); conditions: gavage, 14 days, STZ diabetic rats
From the text: A second in vivo model examined the effect of the compounds of the present invention on sorbitol accumulation in the tissues of 14-day streptozocin (STZ) (Upjohn) diabetic rats.
In each of the studies male Sprague-Dawley rats from Charles River Labs, Kingston, N.Y., weighing 200 to 250 g, were used. The animals were weighed and observed for 5 days prior to the start of the study.
In each study the rats were randomly assigned by weight into groups of 15 animals except for group I which contained 8 animals. The groups were treated as follows:
Group II: STZ, 110 mg/kg i.p.
Group IV: STZ, 110 mg/kg i.p. followed by various doses of a compound of the present invention given by gavage for 14 days, beginning on the day of induction of diabetes.
Following an overnight fast (water ad lib) the animals in groups II-IV were given by i.p. injection 110 mg STZ per kg body weight. The STZ was dissolved in cold citric acid, 0.03M, pH 4.5 and injected within 5 minutes of being dissolved. Control rats (group I) were injected with buffer only.
Two days after STZ injection plasma glucose levels (from the tail vein) were determined following a 4 hour fast. Excluded from the study were animals whose plasma glucose was below 300 mg/dl.
On the morning of the 14th day following STZ injection the animals were fasted 4 hours prior to sacrificing by decapitation. The blood was collected into heparin containing tubes and placed on ice. Both lenses and sciatic nerves were removed immediately, weighed, frozen, and stored at -20° C. until analyzed for sorbitol. The RBCs were collected by centrifugation, the plasma was removed and the cells were washed once with 10 volumes of cold saline. The washed packed RBCs were divided into 1 mL aliquots, extracted with cold perchloric acid and the acid extracts were stored at -20° C. until analyzed for sorbitol.

dulcitol accumulation = assay: lowering of dulcitol (galactitol) accumulation in tissues of galactosemic rats (Table I, IN VIVO); parameters: species or system rat (Sprague-Dawley); conditions: for % Lowering dulcitol accumulation IN VIVO, D: diaphragm; for % Lowering dulcitol accumulation IN VIVO, D / % Lowering dulcitol accumulation IN VIVO, L: galactosemic rats, 4 days; for % Lowering dulcitol accumulation IN VIVO, L: lens
From the text: Such experiments are exemplified hereinbelow after the listing of the following general comments pertaining to these experiments:
(a) Four or more groups of six male rats, […], Sprague-Dawley strain, were used. The first group, the control group, was fed a mixture of laboratory chow (rodent Laboratory Chow, Purina) and […] at 20% (w/w %) concentration. […] The test compound was either admixed to the diet or administered by gavage. In experiments involving compound administration in the diet, the average dose administered was calculated from the actual food intake of the animals in each group. The concentration of galactose in the diet of the treated groups was the same as that for the untreated galactosemic group.
(b) After four days, the animals were killed by decapitation. The eyeballs were removed and punctured with a razor blade; the freed lenses were rolled gently on filter paper and weighed. The sciatic nerves were dissected as completely as possible and weighed. Both tissues when frozen can be kept up to two weeks before being analyzed for galactitol.
Only two minor reagent changes were made: (a) the rinsing mixture was an aqueous 5% (w/v) trichloroacetic acid solution and (b) the stock solution was prepared by dissolving 25 mg of dulcitol in 100 mL of an aqueous trichloroacetic acid solution. [N.B.: For each experiment the average value found in the tissue from rats fed the glucose diet was subtracted from the individual values found in the corresponding tissue in galactose-fed rats to obtain the amount of polyol accumulated.]
The figures under L, N, and D represent the percentage decrease of galactitol accumulation in the tissues of the lens, sciatic nerve, and diaphragm, respectively, for treated rats as compared to untreated rats.

COc1ccc2c(C(=O)N(C)CC(N)=O)c(F)ccc2c1C(F)(F)F [Example 1, N-[(Aminocarbonyl)methyl]-2-fluoro-6-methoxy-N-methyl-5-(trifluoromethyl)-1-naphthalenecarboxamide]
inhibition at 10 µM (aldose reductase; 10^-5 M): 1% | inhibition at 1 µM (aldose reductase; 10^-6 M): 0% | % Lowering of Sciatic Nerve Polyol Accumulation, Fructose ([1]; 3 mg/kg): 69% | % Lowering of Sciatic Nerve Polyol Accumulation, Sorbital ([1]; 3 mg/kg): 50% | % Lowering of Sciatic Nerve Polyol Accumulation, Fructose ([1]; 6 mg/kg): 87% | % Lowering of Sciatic Nerve Polyol Accumulation, Sorbital ([1]; 6 mg/kg): 77% | % Lowering of Sciatic Nerve Polyol Accumulation, Fructose ([1]; 9 mg/kg): 94% | % Lowering of Sciatic Nerve Polyol Accumulation, Sorbital ([1]; 9 mg/kg): 79% | % Lowering of Sciatic Nerve Polyol Accumulation, Fructose ([1]; 12 mg/kg): 98% | % Lowering of Sciatic Nerve Polyol Accumulation, Sorbital ([1]; 12 mg/kg): 78% | % Lowering of Sciatic Nerve Polyol Accumulation, Fructose ([1]; 20 mg/kg): 105% | % Lowering of Sciatic Nerve Polyol Accumulation, Sorbital ([1]; 20 mg/kg): 84% | results in the sciatic nerve compared with tolrestat (dulcitol accumulation; 10 mg/kg/day versus tolrestat at 9 mg/kg/day, sciatic nerve): comparable results | % Lowering dulcitol accumulation IN VIVO, D (dulcitol accumulation; 5 mg/kg): 32% | % Lowering dulcitol accumulation IN VIVO, D (dulcitol accumulation; 10 mg/kg): 53% and 58% | % Lowering dulcitol accumulation IN VIVO, D (dulcitol accumulation; 12 mg/kg): 52% | % Lowering dulcitol accumulation IN VIVO, D (dulcitol accumulation; 14 mg/kg): 62% | % Lowering dulcitol accumulation IN VIVO, D (dulcitol accumulation; 15 mg/kg): 57% | % Lowering dulcitol accumulation IN VIVO, D (dulcitol accumulation; 19 mg/kg): 63% | % Lowering dulcitol accumulation IN VIVO, D (dulcitol accumulation; 24 mg/kg): 75% | % Lowering dulcitol accumulation IN VIVO, L (dulcitol accumulation; 5 mg/kg): N.S. | % Lowering dulcitol accumulation IN VIVO, L (dulcitol accumulation; 10 mg/kg): N.S. | % Lowering dulcitol accumulation IN VIVO, L (dulcitol accumulation; 12 mg/kg): N.S. | % Lowering dulcitol accumulation IN VIVO, L (dulcitol accumulation; 14 mg/kg): N.S. | % Lowering dulcitol accumulation IN VIVO, L (dulcitol accumulation; 15 mg/kg): N.S. | % Lowering dulcitol accumulation IN VIVO, L (dulcitol accumulation; 19 mg/kg): N.S. | % Lowering dulcitol accumulation IN VIVO, L (dulcitol accumulation; 24 mg/kg): N.S.

COc1ccc2c(C(=S)N(C)CC(=O)O)cccc2c1C(F)(F)F [tolrestat, N-[[6-methoxy-5-(trifluoromethyl)-1-naphthalenyl]thioxomethyl]-N-methylglycine, reference compound]
% Lowering of Sciatic Nerve Polyol Accumulation, Fructose ([1]; 6 mg/kg): 58% | % Lowering of Sciatic Nerve Polyol Accumulation, Sorbital ([1]; 6 mg/kg): 53% | % Lowering dulcitol accumulation IN VIVO, L (dulcitol accumulation; 9 mg/kg): N.S.
